Test results reported in US4017534A, “16-Fluoro-11-deoxy-13-dihydro-prostaglandin” (American Cyanamid Company, priority 1975, dated 1977).
Read-outs that look alike come from different tables or passages of the source.

Legend:
[1] = tested on: basal gastric acid secretion; assay: Inhibition of total acid output in the acute gastric fistula rat; assay type: in vivo, Female Sprague-Dawley rats; conditions: for ED50: Rattus norvegicus
Description: The compounds of this invention are also useful as inhibitors of gastric acid secretion and peptic ulcer formation and may be used for the treatment of gastric hyperacidity, gastric erosion, and peptic ulcer. Inhibition of basal gastric acid secretion can be determined by the following procedure.
Female Sprague-Dawley rats weighting 140-160 grams are fasted in individual cages for 18-24 hours. The rats are then lightly anesthetized with ether and their front teeth extracted to avoid destruction of the plastic cannula. A midline incision is then made and the stomach and duodenum exposed. A flanged polyvinyl tube is inserted into the fundic portion of the stomach and secured with a purse string suture line using 4-O Mersilene. The rat is then dosed by injection of the compound into the duodenum (1.0 ml. per 100 gram body weight). After dosing, the abdominal wall and skin are closed using metal wound clips. The rate is replaced in a cage containing a longitudinal slit to allow the polyvinyl tube to hang freely. An 8 ml. plastic collecting tube is attached to the flanged cannula and hangs freely below the cage. The first 30 minute sample is discarded designating this time as zero. The collecting tube is attached again and samples removed at the end of 60 and 120 minutes. These samples are referred to as "A" and "B" in the table. The hourly samples are then transferred to a 15 ml. centrifuge and centrifuged for 5-10 minutes. Total and sediment volume are then recorded with the supernatent volume being used as volume of secretion. A 1 ml. or less aliquot is then removed and placed in a 50 ml. beaker containing 10 ml. of distilled water. This sample is then titrated using 0.01N NaOH to pH 7.0 using a Beckman zeromatic pH meter. Volume, titratable acidity (meg.L) and total acid output (μeg/hour) are recorded. Percent inhibition is determined by comparison with the appropriate control. Groups of three rats were used for preliminary testing, and groups of six rats were used for dose-response evaluations. All compounds are administered in a vehicle consisting of 0.5% methocel, 0.4% tween 80, and saline at a constant volume of 1 ml./100 gram rat. Samples are dispersed by sonification. Percent inhibition is calculated on basis of concurrent vehicle control.
In Table B which follows is given the effect on total acid output after 120 minutes of a 10 mg./kg. dose of representative ketals of this invention. For comparison the result obtained with the corresponding 9-oxo derivative, l 9-oxo-15(S)-hydroxyprostanoic acid is included.
Dose response evaluation in the acute gastric fistual rat assay further illustrates the pronounced advantage of the novel ketals of this invention as gastric acid secretion inhibitors relative to the corresponding 9-oxo derivative.

[2] = tested on: bronchospasms elicited by 5-hydroxytryptamine; assay: Bronchodilator activity (intraduodenal route) against 5-hydroxytryptamine; assay type: in vivo, guinea pigs; design: key: 0: no activity; +: minimal activity; ++++: maximum activity
Description: (§1) The compounds of this invention are useful as bronchodilators for the treatment of asthma and chronic bronchitis. Bronchodilator activity is determined in guinea pigs against bronchospasms elicited by intravenous injections of 5-hydroxytryptamine, histamine or acetylcholine by the Konzett procedure. [See J. Lulling, P. Lievens, F. El Sayed and J. Prignot, Arzneimittel-Forschung, 18, 995 (1968).]
(§2) In Table A' which follows bronchodilator activity for representative compounds of this invention against one or more of three spasmogenic agents is reported. In this assay candidate compounds are suspended in 10% gum arabic solution and the suspension is administered by the intraduodenal route. The activity of the compound at any one dose is then investigated throughout the following hour (see above-cited reference, J. Lulling et al.). Potency is then reported as O, +, ++, +++, or ++++, wherein 0 represents no activity, + minimal activity and ++++ maximum activity.

[3] = tested on: bronchospasms elicited by histamine; assay: Bronchodilator activity (intraduodenal route) against histamine; assay type: in vivo, guinea pigs; design: key: 0: no activity; +: minimal activity; ++++: maximum activity; conditions: intraduodenal dose 10 mg./kg.
Description: as §1, §2

[4] = tested on: gastric acid secretion; assay: Gastric acid secretion inhibition, Shay-rat procedure; assay type: in vivo, rats (male, CFE strain); conditions: intraduodenal dose 100 mg./kg. of body weight
Description: Gastric acid secretion inhibition can also be observed in an assay wherein acid secretion is stimulated as in the well-known "Shay-rat" procedure, which is carried out in the following manner.
The rats (male, CFE strain) were starved for 48 hours (water was given ad libitum) to permit evacuation of stomach contents. On the morning of the experiment, under ether anesthesia, the abdominal region was shaved and a midline incision (1-11/2 inch) was made with a scapel. With the help of a closed curved hemostat the duodenum was picked up. […]
The abdominal cavity was exposed by cutting with scissors and the esophagus close to the stomach was clamped off with a hemostat, the stomach was removed by cutting above the hemostat (the esophagus was cut) and between the two sutures. […] The supernatant was collected, volume measured and recorded, 2 drops of a phenolphthalein indicator (1% in 95% ethanol) were added and the solution was tritrated with 0.02N NaOH (or with 0.04N NaOH when large volumes of stomach contents were encountered) to pH 8.4 (because of usual coloring of the stomach contents, phenolphthalein was only used to permit visual indication that the end point was near) and the amount of acid present was calculated. […]

[5] = tested on: bronchoconstriction induced by administration of pilocarpine; assay: Bronchodilator activity by aerosol in dogs; assay type: in vivo; conditions: for bronchodilator activity by aerosol: aerosol concentration 0.032%
Description: (§3) The novel ketals of this invention also show bronchodilator activity when administered by aerosol to dogs wherein bronchoconstriction was induced by administration of pilocarpine. […] This is very important since coughing is one of the damaging side effects reported in the literature when prostaglandin aerosols are administered to human subjects. [See Y. Kawakami et al., European Journal Clinical Pharmacology, 6, 127 (1973); M. F. Cuthbert, Brit. Med. Journ. 723 (Dec. 20, 1969); H. Herxheimer and I. Roetscher, European Journal Clinical Pharmacology, 3, 123 (1971).]

[6] = tested on: cough; assay: Cough induction by aerosol in human; assay type: in vivo
Description: as §3

[7] = tested on: bronchospasms elicited by intravenous injections of 5-hydroxytryptamine; assay: Bronchodilator activity (Konzett assay, intravenous) against 5-hydroxytryptamine; assay type: in vivo, guinea pigs; conditions: Cavia porcellus, guinea pig, spasmogen 5-hydroxytryptamine, read-out: Bronchodilator Activity (Konzett Assays) ED50, 5-hydroxytryptamine
Description: as §1
(§4) In Table A which follows bronchodilator activity for representative compounds of this invention against one or more of three spasmogenic agents is expressed as an ED50 determined from the results obtained with three logarithmic cumulative intravenous doses.

[8] = tested on: bronchospasms elicited by intravenous injections of acetylcholine; assay: Bronchodilator activity (Konzett assay, intravenous) against acetylcholine; assay type: in vivo, guinea pigs; conditions: Cavia porcellus, guinea pig, spasmogen acetylcholine, read-out: Bronchodilator Activity (Konzett Assays) ED50, acetylcholine
Description: as §1, §4

[9] = tested on: bronchospasms elicited by intravenous injections of histamine; assay: Bronchodilator activity (Konzett assay, intravenous) against histamine; assay type: in vivo, guinea pigs; conditions: Cavia porcellus, guinea pig, spasmogen histamine, read-out: Bronchodilator Activity (Konzett Assays) ED50, histamine
Description: as §1, §4

[10] = 2 h, 10 mg./kg., intraduodenal route, rat, read-out: %-Inhibition of Total Acid Output After 120 Minutes
[11] = Table C, intraduodenal route, 1 hr. collection, read-out: ED50, 1 hr. collection (A)
[12] = Table C, intraduodenal route, 2 hr. collection, read-out: ED50, 2 hr. collection (B)

Molecule	inhibition in vivo at 10 mg/kg [1, 10]	ED50 [1, 11]	ED50 [1, 12]	Bronchodilator potency, Spasmogenic Agent Histamine [3]	also measured
CCCCC[C@H](O)CC[C@H]1CCC2(OCC(CCl)O2)[C@@H]1CCCCCCC(=O)O (stereo partly drawn) [l-9,9-(1-chloromethylethylenedioxy)-15(S)-hydroxy-prostanoic acid]	99%	6 mg/kg	6 mg/kg		Bronchodilator potency, Spasmogenic Agent 5-Hydroxytryptamine ([2]; intraduodenal dose 3.2 mg./kg.): ++++
CCCCC[C@H](O)CC[C@H]1CCC2(OCC(C)(C)CO2)[C@@H]1CCCCCCC(=O)O [9,9-(2,2-dimethylpropylenedioxy)-15(S)-hydroxy-prostanoic acid]	32%			+	Bronchodilator potency, Spasmogenic Agent 5-Hydroxytryptamine ([2]; intraduodenal dose 10 mg./kg.): +
CCCCC[C@@H](CC[C@H]1CCC2(OCCCO2)[C@@H]1CCCCCCC(=O)OC)OC(C)=O [l methyl 9,9-(1,3-propylenedioxy)-15(S)-acetoxy-prostanoate]	60%	6 mg/kg	6 mg/kg	+	
CCCCC[C@@H](CC[C@H]1CCC2(OCC(CCl)O2)[C@@H]1CCCCCCC(=O)OC)OC(C)=O (stereo partly drawn) [l methyl-9,9-(1-chloromethylethylenedioxy)-15(S)-acetoxy-prostanoate]	26%			+	
CCCCC[C@H](O)CC[C@H]1CCC2(OC(C)C(C)O2)[C@@H]1CCCCCCC(=O)O (stereo partly drawn) [l-9,9-(1,2-dimethylethylenedioxy)-15(S)-hydroxy-prostanoic acid]	57%	< 8 mg/kg	8 mg/kg	+	
CCCCCC(O)CCC1CCC2(OCCO2)C1CCCCCCC(=O)O (racemic) [9,9-(ethylenedioxy)-15-hydroxy-prostanoic acid]					Percent Inhibition (gastric acid secretion, Shay rat) [4]: 56%
CCCCC[C@H](O)CC[C@H]1CCC(=O)[C@@H]1CCCCCCC(=O)O [l 9-oxo-15(S)-hydroxyprostanoic acid, 1-15(S)-hydroxy-9-oxo-prostanoic acid, reference compound]		18 mg/kg	> 25 mg/kg		inhibition in vivo at 12.5 mg/kg ([1]; 2 h, 12.5 mg./kg. dose, intraduodenal route, rat, read-out: %-Inhibition of Total Acid Output After 120 Minutes): 27%; potency relative to the ketals ([1]; total acid output, Table B): significantly less potent than the ketals; bronchodilator activity by aerosol [5]: very weak; induction of cough by aerosol [6]: ketone aerosol does
CCCCC[C@@H](CC[C@H]1CCC2(OCCO2)[C@@H]1CCCCCCC(=O)OC)OC(C)=O [l methyl 9,9-ethylenedioxy-15(S)-acetoxy-prostanoate]	100%		3 mg/kg		ED50 ([1]; 2 h, Table B, intraduodenal route, after 120 minutes, read-out: ED50 (inhibition of total acid output)): 3 mg/kg
CCCCC[C@H](O)CC[C@H]1CCC2(OCC(C)O2)[C@@H]1CCCCCCC(=O)O (stereo partly drawn) [l-15(S)-hydroxy-9,9-(1-methylethylenedioxy)-prostanoic acid]	61%				ED50 [7]: 0.000104 mg/kg; ED50 [8]: 0.000644 mg/kg
l methyl 9,9-(2,2-dimethyl-1,3-propylenedioxy)-15(S)-acetoxy-prostenoate					%-Inhibition of Total Acid Output After 120 Minutes ([1]; 10 mg./kg., intraduodenal route, rat): 27%
CCCCC[C@@H](CC[C@H]1CCC2(SCCS2)[C@@H]1CCCCCCC(=O)OC)OC(C)=O [l methyl 9,9-ethylenedithia-15(S)-acetoxy-prostanoate]	32%				
CCCCC[C@H](O)CC[C@H]1CCC2(OCCS2)[C@@H]1CCCCCCC(=O)O (stereo partly drawn) [l-9,9-(ethyleneoxythia)-15(S)-hydroxy-prostanoic acid]	39%			+	
CCCCC[C@@H](CC[C@H]1CCC2(OC(C)C(C)O2)[C@@H]1CCCCCCC(=O)OC)OC(C)=O (stereo partly drawn) [l methyl 9,9-(1,2-dimethylethylenedioxy)-15(S)-acetoxyprostanoate]	74%	7 mg/kg	7 mg/kg		
CCCCC[C@H](O)CC[C@H]1CCC2(OCCO2)[C@@H]1CCCCCCC(=O)O [l-9,9-(ethylenedioxy)-15(S)-hydroxy-prostanoic acid]	63%	1 mg/kg	2.3 mg/kg		bronchodilator activity by aerosol [5]: fully-present; potency of the ketal relative to the ketone ([5]; aerosol, versus l 9-oxo-15(S)-hydroxyprostanoic acid): at least 10 times; ED50 [9]: 0.000376 mg/kg; ED50 [7]: 0.00253 mg/kg; ED50 [8]: 0.0274 mg/kg; induction of cough by aerosol [6]: does not induce cough
CCCCC[C@@H](CC[C@H]1CCC2(OCC(C)O2)[C@@H]1CCCCCCC(=O)OC)OC(C)=O (stereo partly drawn) [l methyl 9,9-(1-methylethylenedioxy)-15(S)-acetoxyprostanoate]					Bronchodilator potency, Spasmogenic Agent 5-Hydroxytryptamine ([2]; intraduodenal dose 10 mg./kg.): +
